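How tested: cells in 96-well plates exposed to compound for 48 hours at five concentrations. The concentration for full growth arrest is given as TGI.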
Tests used:
Assay in all cases: DTP human tumour cell line panel, 48 h
MALME-3M melanoma = system: MALME-3M melanoma
OVCAR-8 ovarian = system: OVCAR-8 ovarian
ACHN renal = system: ACHN renal
IGROV1 ovarian = system: IGROV1 ovarian
SK-MEL-2 melanoma = system: SK-MEL-2 melanoma
NCI-H522 lung = system: NCI-H522 lung
HOP-18 NSCLC = system: HOP-18 NSCLC
RPMI-8226 leukemia = system: RPMI-8226 leukemia
HL-60(TB) leukemia = system: HL-60(TB) leukemia
M14 melanoma = system: M14 melanoma
DMS 114 small cell lung = system: DMS 114 small cell lung
SF-295 CNS = system: SF-295 CNS
SW-620 colon = system: SW-620 colon
HT29 colon = system: HT29 colon
XF 498 CNS = system: XF 498 CNS
SNB-19 CNS = system: SNB-19 CNS
SK-MEL-28 melanoma = system: SK-MEL-28 melanoma
NCI-H226 lung = system: NCI-H226 lung
KM12 colon = system: KM12 colon
OVCAR-3 ovarian = system: OVCAR-3 ovarian
HCT-15 colon = system: HCT-15 colon
NCI-H23 lung = system: NCI-H23 lung
DLD-1 colon = system: DLD-1 colon
K-562 leukemia = system: K-562 leukemia
DMS 273 small cell lung = system: DMS 273 small cell lung
HCC-2998 colon = system: HCC-2998 colon
M19-MEL melanoma = system: M19-MEL melanoma
SF-539 CNS = system: SF-539 CNS
U251 CNS = system: U251 CNS
COLO 205 colon = system: COLO 205 colon
CAKI-1 renal = system: CAKI-1 renal
A498 renal = system: A498 renal
SF-268 CNS = system: SF-268 CNS
A549 NSCLC = system: A549 NSCLC
786-0 renal = system: 786-0 renal
OVCAR-4 ovarian = system: OVCAR-4 ovarian
SK-MEL-5 melanoma = system: SK-MEL-5 melanoma
UO-31 renal = system: UO-31 renal
SNB-75 CNS = system: SNB-75 CNS
NCI-H460 lung = system: NCI-H460 lung
UACC-62 melanoma = system: UACC-62 melanoma
HOP-62 NSCLC = system: HOP-62 NSCLC
KM20L2 colon = system: KM20L2 colon
RXF-631 renal = system: RXF-631 renal
HOP-92 NSCLC = system: HOP-92 NSCLC
LXFL 529 NSCLC = system: LXFL 529 NSCLC
CCRF-CEM leukemia = system: CCRF-CEM leukemia
SK-OV-3 ovarian = system: SK-OV-3 ovarian
MOLT-4 leukemia = system: MOLT-4 leukemia
SN12C renal = system: SN12C renal
UACC-257 melanoma = system: UACC-257 melanoma
HCT-116 colon = system: HCT-116 colon
OVCAR-5 ovarian = system: OVCAR-5 ovarian
TK-10 renal = system: TK-10 renal
EKVX NSCLC = system: EKVX NSCLC
SNB-78 CNS = system: SNB-78 CNS

## c1ccc2c(NCCCCCCCCNc3cccc4ccccc34)cccc2c1
MALME-3M melanoma
  TGI: 46.5 µM
OVCAR-8 ovarian
  TGI: 54.8 µM
ACHN renal
  TGI: 80.6 µM
IGROV1 ovarian
  TGI: > 100 µM
SK-MEL-2 melanoma
  TGI: > 100 µM
NCI-H522 lung
  TGI: 36 µM
HOP-18 NSCLC
  TGI: 58.6 µM
RPMI-8226 leukemia
  TGI: > 10 µM
HL-60(TB) leukemia
  TGI: 50.7 µM
M14 melanoma
  TGI: 39.6 µM
DMS 114 small cell lung
  TGI: 68.2 µM
SF-295 CNS
  TGI: > 100 µM
SW-620 colon
  TGI: 40 µM
HT29 colon
  TGI: > 100 µM
XF 498 CNS
  TGI: > 100 µM
SNB-19 CNS
  TGI: > 100 µM
SK-MEL-28 melanoma
  TGI: 40.3 µM
NCI-H226 lung
  TGI: > 100 µM
KM12 colon
  TGI: > 100 µM
OVCAR-3 ovarian
  TGI: > 100 µM
HCT-15 colon
  TGI: 84.7 µM
NCI-H23 lung
  TGI: 65 µM
DLD-1 colon
  TGI: > 100 µM
K-562 leukemia
  TGI: 80.9 µM
DMS 273 small cell lung
  TGI: 80.6 µM
HCC-2998 colon
  TGI: > 100 µM
M19-MEL melanoma
  TGI: > 10 µM
SF-539 CNS
  TGI: 72.2 µM
U251 CNS
  TGI: > 100 µM
COLO 205 colon
  TGI: 35.4 µM
CAKI-1 renal
  TGI: 35.8 µM
A498 renal
  TGI: > 100 µM
SF-268 CNS
  TGI: > 100 µM
A549 NSCLC
  TGI: > 100 µM
786-0 renal
  TGI: 57.1 µM
OVCAR-4 ovarian
  TGI: 67.3 µM
SK-MEL-5 melanoma
  TGI: > 10 µM
UO-31 renal
  TGI: > 100 µM
SNB-75 CNS
  TGI: 83.2 µM
NCI-H460 lung
  TGI: 60.5 µM
UACC-62 melanoma
  TGI: 45.9 µM
HOP-62 NSCLC
  TGI: > 100 µM
KM20L2 colon
  TGI: > 100 µM
RXF-631 renal
  TGI: 34.5 µM
HOP-92 NSCLC
  TGI: 35.7 µM
LXFL 529 NSCLC
  TGI: 38.1 µM
CCRF-CEM leukemia
  TGI: 42.5 µM
SK-OV-3 ovarian
  TGI: > 100 µM
MOLT-4 leukemia
  TGI: 39.9 µM
SN12C renal
  TGI: > 100 µM
UACC-257 melanoma
  TGI: 51.7 µM
HCT-116 colon
  TGI: 40 µM
OVCAR-5 ovarian
  TGI: > 100 µM
TK-10 renal
  TGI: 43.6 µM
EKVX NSCLC
  TGI: > 10 µM
SNB-78 CNS
  TGI: > 100 µM
